Converted amounts (≈) assume the structure as drawn. Where two headings read alike, the source gives them in different places.
How the values were obtained:
in vivo = conditions: mouse; for half-life: T1/2
E. coli Juhl = assay: Protective dose, mice infected with lethal inoculum, oral treatment, E. coli Juhl; assay type: in vivo; conditions: for ED50: Escherichia coli, po, 120 h, oral, 50% survival for 5 days, groups of 5 mice, read-out: Protective dose (PD50), E. coli Juhl
S. aureus Smith = assay: Protective dose, mice infected with lethal inoculum, oral treatment, S. aureus Smith; assay type: in vivo; conditions: Staphylococcus aureus, po, 120 h, oral; 50% survival for 5 days; groups of 5 mice; read-out: Protective dose (PD50), S. aureus Smith
[1] = mouse, in vivo
[2] = test system: Gp Ib: S. aureus 193, BX-1633-2 A9606, A15092, Russell, A9602; conditions: Staphylococcus aureus, read-out: Minimum Inhibitory Concentration Gp Ib, Mueller-Hinton agar, average of five organisms
[3] = test system: Gp Ia: S. aureus Smith A9537, A9497, Terajima, A9534, A9601; conditions: Staphylococcus aureus, read-out: Minimum Inhibitory Concentration Gp Ia, Mueller-Hinton agar, average of five organisms

SMILES	AUC (in vivo; im, 20 mg/kg, AUC*)	Cmax (in vivo; im, 20 mg/kg)	half-life (in vivo; im, 20 mg/kg)	AUC (in vivo; po, 20 mg/kg, AUC*)	Cmax (in vivo; po, 20 mg/kg)	half-life (in vivo; po, 20 mg/kg)	AUC (in vivo; po, 100 mg/kg, AUC)	Cmax (in vivo; po, 100 mg/kg)	half-life (in vivo; po, 100 mg/kg)	ED50 (E. coli Juhl)	activity against the Gram- infection (E. coli Juhl; in words)	ED50 (S. aureus Smith)	T1/2 ([1]; im, 20 mg/kg)	T1/2 ([1]; po, 20 mg/kg)	T1/2 ([1]; po, 100 mg/kg)	MIC ([2]; run 1)	MIC ([2]; run 2)	MIC ([3]; run 1)	MIC ([3]; run 2)	oral absorption ([1]; po)
C/C=C\C1=C(C(=O)O)N2C(=O)[C@@H](NC(=O)[C@H](N)c3ccccc3)[C@H]2SC1 [Compound 24, 7β-(D(-)-2-Amino-2-phenylacetamido)-3-[(Z)-1-propen-1-yl]-3-cephem-4-carboxylic acid]	22000 ng·h/mL	31000 ng/mL	0.5 h	15000 ng·h/mL	7800 ng/mL	1.3 h	84000 ng·h/mL	40000 ng/mL	1.1 h	1.5 mg/kg	more active against the Gram- infection	0.18 mg/kg	0.58 h	0.69 h	1.1 h	0.92 µg/mL (≈ 2.46 µM)	0.92 µg/mL (≈ 2.46 µM)	0.23 µg/mL (≈ 0.616 µM)	0.3 µg/mL (≈ 0.803 µM)	–
N[C@@H](C(=O)N[C@@H]1C(=O)N2C(C(=O)O)=C(C=CCSc3cnn[nH]3)CS[C@H]12)c1ccc(O)cc1 [Compound 21, 7β-[D-2-Amino-2-(p-hydroxyphenyl)acetamido]-3-[3-(1H-1,2,3-triazol-5-yl)thio-1-propen-1-yl]-3-cephem-4-carboxylic Acid]	9600 ng·h/mL	16000 ng/mL	0.54 h	6600 ng·h/mL	1700 ng/mL	2.6 h	19000 ng·h/mL	4400 ng/mL	3.2 h	–	–	–	–	–	–	2.7 µg/mL (≈ 5.53 µM)	–	0.61 µg/mL (≈ 1.25 µM)	–	Uniformly good oral absorption is reflected except for Compound No. 21
C/C=C\C1=C(C(=O)O)N2C(=O)[C@@H](NC(=O)[C@H](N)c3ccc(O)c(Cl)c3)[C@H]2SC1 [Compound 32, 7β-[D-2-Amino-2-(3-chloro-4-hydroxyphenyl)acetamido]-3-[(Z)-1-propen-1-yl]-3-cephem-4-carboxylic acid]	13000 ng·h/mL	21000 ng/mL	0.48 h	13000 ng·h/mL	7900 ng/mL	1.7 h	37000 ng·h/mL	25000 ng/mL	1.7 h	3.04 mg/kg	–	0.17 mg/kg	–	–	–	–	0.53 µg/mL (≈ 1.25 µM)	–	0.13 µg/mL (≈ 0.307 µM)	–
C=CC1=C(C(=O)O)N2C(=O)[C@@H](NC(=O)[C@H](N)c3ccc(O)cc3)[C@H]2SC1 [Compound 11]	15000 ng·h/mL	23000 ng/mL	0.37 h	13000 ng·h/mL	11000 ng/mL	1.4 h	49000 ng·h/mL	43000 ng/mL	1.2 h	3.8 mg/kg	–	0.18 mg/kg	–	–	–	1.2 µg/mL (≈ 3.2 µM)	–	0.4 µg/mL (≈ 1.07 µM)	–	–

— US4520022A, “Substituted vinyl cephalosporins” (priority 1983, dated 1985)
